{
  "source": "paper PMC2691587",
  "about": "(Journal of medicinal chemistry, 2009)",
  "key": {"[1]": {"test_system": "MCF-7 breast adenocarcinoma cells", "assay": "Western blot of p53 and K382-acetylated p53 levels in MCF-7 cells", "type": "cell-based, human"}, "H1299 cells": {"test_system": "H1299 cells", "assay": "Western blot of K40-acetylated α-tubulin levels in H1299 cells", "type": "cell-based, human"}, "SIRT1": {"test_system": "SIRT1", "conditions": "read-out: SIRT1 IC50 (previously reported); in vitro; cited from earlier work"}, "SIRT2": {"test_system": "SIRT2", "conditions": "read-out: SIRT2 IC50 (previously reported); in vitro; cited from earlier work"}, "NCI H460 cancer cells": {"test_system": "NCI H460 cancer cells", "conditions": "in the presence of etoposide (10 μM); cited from earlier work"}, "human recombinant SIRT1": {"target": "T1, human recombinant SIRT1 (Homo sapiens, UniProt Q96EB6)", "T1 sequence (Q96EB6 1-747)": "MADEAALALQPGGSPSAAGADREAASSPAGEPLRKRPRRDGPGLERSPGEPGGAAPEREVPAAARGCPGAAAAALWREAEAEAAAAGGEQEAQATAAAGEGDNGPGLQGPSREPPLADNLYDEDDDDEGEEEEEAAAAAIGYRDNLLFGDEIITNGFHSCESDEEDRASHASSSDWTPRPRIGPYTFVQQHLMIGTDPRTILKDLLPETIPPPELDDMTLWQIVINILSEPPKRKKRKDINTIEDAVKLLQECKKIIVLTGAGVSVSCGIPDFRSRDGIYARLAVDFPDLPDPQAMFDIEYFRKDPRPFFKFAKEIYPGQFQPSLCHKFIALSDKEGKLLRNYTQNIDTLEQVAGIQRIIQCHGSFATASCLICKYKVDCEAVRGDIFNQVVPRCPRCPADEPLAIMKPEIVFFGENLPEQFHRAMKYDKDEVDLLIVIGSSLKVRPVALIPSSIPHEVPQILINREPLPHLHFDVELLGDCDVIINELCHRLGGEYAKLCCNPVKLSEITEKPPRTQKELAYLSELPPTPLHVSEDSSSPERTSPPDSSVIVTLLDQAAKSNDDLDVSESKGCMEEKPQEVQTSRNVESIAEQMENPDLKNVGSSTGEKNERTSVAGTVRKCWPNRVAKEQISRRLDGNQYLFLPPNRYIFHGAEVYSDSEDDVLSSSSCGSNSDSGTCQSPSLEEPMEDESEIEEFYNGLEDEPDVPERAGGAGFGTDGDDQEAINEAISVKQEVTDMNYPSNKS", "assay": "SIRT1 inhibition, Fluor de Lys fluorescence-based assay", "type": "biochemical", "conditions": "ratio of IC50 values versus 1"}},
  "data": [
    {"smiles": "O=c1[nH]c(=S)[nH]c(-c2ccccc2)c1Cc1c(O)ccc2ccccc12", "note": "[compound 1, 6-Phenyl-5-[2″-hydroxynaphthyl-(1″)-methyl]-2-thioxo-2,3-dihydro-1H-pyrimidin-4-one]", "values": [
      {"measurement": "levels of p53 and acetylated p53", "setting": "[1]; MCF-7, in the presence of etoposide (10 μM), 200 μM compound", "value": "decreased again"},
      {"measurement": "levels of p53 and Lys382 acetylated p53", "setting": "[1]; MCF-7, in the presence of etoposide (10 μM), 20 and 50 μM compound, 6 h", "value": "increased"},
      {"measurement": "levels of acetylated α-tubulin", "setting": "H1299 cells; H1299 cells, with 40 nM trichostatin A, 24 h", "value": "did lead to an increase in levels of acetylated tubulin"},
      {"measurement": "IC50", "setting": "SIRT1", "value": 56, "unit": "µM"},
      {"measurement": "IC50", "setting": "SIRT2", "value": 59, "unit": "µM"},
      {"measurement": "levels of p53 and acetylated p53", "setting": "NCI H460 cancer cells", "value": "increased levels of p53 and acetylated p53"}
    ]},
    {"smiles": "CCCCn1c(-c2ccccc2)c(Cc2c(O)ccc3ccccc23)c(=O)[nH]c1=S", "note": "[6j, 6-Phenyl-5-[2″-hydroxynaphthalyl-(1″)-methyl]-1-butyl-2-thioxo-2,3-dihydro-1H-pyrimidin-4-one]", "values": [
      {"measurement": "levels of acetylated α-tubulin compared to the effect of 1", "setting": "H1299 cells; H1299 cells, with trichostatin A, concentration range 10–50 μM", "value": "an increase in the levels of acetylated α-tubulin was achieved"},
      {"measurement": "toxicity in cells", "setting": "H1299 cells; concentrations higher than 10–50 μM", "value": "toxicity"}
    ]},
    {"smiles": "O=c1[nH]c(=S)[nH]c(-c2ccc(Br)cc2)c1Cc1c(O)ccc2ccccc12", "note": "[6b, 6-(4′-Bromophenyl)-5-[2″-hydroxynaphthyl-(1″)-methyl]-2-thioxo-2,3-dihydro-1H-pyrimidin-4-one]", "values": [
      {"measurement": "improvement in activity (IC50) against SIRT1 compared to 1", "setting": "human recombinant SIRT1", "value": 3, "unit": "fold"},
      {"measurement": "levels of p53", "setting": "[1]; MCF-7, compound alone, in the absence of etoposide, different concentrations", "value": "did not increase the levels of p53"},
      {"measurement": "levels of acetylated α-tubulin", "setting": "H1299 cells; Figure S13, cell line not given", "value": "did not lead to an increase in the levels of acetylated α-tubulin"}
    ]}
  ]
}
